The record followed here is PubChem BioAssay AID1963864 (Molecular Pharmacology Branch, DTP, NCI, 2024).

The term IC50 denotes the concentration at which inhibition is half-maximal. The viability, T/C is the ratio of treated to control.

The assay relates to KRAS PDC multicell spheroid viability. In words: Anticancer human tumor 521955-158-R6-J3-PDC patient-derived pancreatic carcinoma cell line growth inhibition [KRAS2]. The note with it: for viability, T/C: stronger effect = lower value. In outline:
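Combination screen of spheroid viability in tumor-cell co-cultures with endothelial (HUVEC) and mesenchymal stem cell stroma. Each agent was tested in half-log dilutions, topping at clinical Cmax or at 10 microM without a known Cmax.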

[1] abbreviates: curve of first compound, second compound 0.1 µM.
Where [2] appears, read: curve of first compound, second compound 0.316 µM.
Setting [3] is: curve of first compound, second compound 1 µM.
Setting [4] is: curve of first compound, second compound 3.16 µM.
Where [5] appears, read: curve of first compound, second compound 10 µM.
The mark [6] stands for this setting: second compound 0.1 µM, first compound 0.0316 µM.
The mark [7] stands for this setting: second compound 0.1 µM, first compound 0.1 µM.
[8] abbreviates: second compound 0.1 µM, first compound 0.316 µM.
Setting [9] is: second compound 0.1 µM, first compound 1 µM.
The mark [10] stands for this setting: second compound 0.1 µM, first compound 3.16 µM.
[11] abbreviates: second compound 0.1 µM, first compound 10 µM.
The mark [12] stands for this setting: second compound 0.316 µM, first compound 0.0316 µM.
Where [13] appears, read: second compound 0.316 µM, first compound 0.1 µM.
Where [14] appears, read: second compound 0.316 µM, first compound 0.316 µM.
Where [15] appears, read: second compound 0.316 µM, first compound 1 µM.
[16] abbreviates: second compound 0.316 µM, first compound 3.16 µM.
Setting [17] is: second compound 0.316 µM, first compound 10 µM.
Where [18] appears, read: second compound 1 µM, first compound 0.0316 µM.
The mark [19] stands for this setting: second compound 1 µM, first compound 0.1 µM.
Where [20] appears, read: second compound 1 µM, first compound 0.316 µM.
The mark [21] stands for this setting: second compound 1 µM, first compound 1 µM.
The mark [22] stands for this setting: second compound 1 µM, first compound 3.16 µM.
The mark [23] stands for this setting: second compound 1 µM, first compound 10 µM.
[24] abbreviates: second compound 3.16 µM, first compound 0.0316 µM.
Setting [25] is: second compound 3.16 µM, first compound 0.1 µM.
Setting [26] is: second compound 3.16 µM, first compound 0.316 µM.
Setting [27] is: second compound 3.16 µM, first compound 1 µM.
[28] abbreviates: second compound 3.16 µM, first compound 3.16 µM.
Setting [29] is: second compound 3.16 µM, first compound 10 µM.
The mark [30] stands for this setting: second compound 10 µM, first compound 0.0316 µM.
The mark [31] stands for this setting: second compound 10 µM, first compound 0.1 µM.
Where [32] appears, read: second compound 10 µM, first compound 0.316 µM.
The mark [33] stands for this setting: second compound 10 µM, first compound 1 µM.
Where [34] appears, read: second compound 10 µM, first compound 3.16 µM.
The mark [35] stands for this setting: second compound 10 µM, first compound 10 µM.
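Note: drug exposure lasted seven days.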
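Throughout, for viability, T/C: 100% = DMSO vehicle wells and lower means fewer viable cells.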

On to `CC1OCC2(CCN(c3cnc(Sc4ccnc(N)c4Cl)c(N)n3)CC2)C1N` (configuration not stated) + CNCc1ccccc1-c1csc(C(C)Nc2nc(C)nc3cc(OC)c(OC)cc23)c1, for which the IC50 runs as follows: under setting [1], above 10 µM; under setting [2], above 10 µM; under setting [3], above 10 µM; under setting [4], below 0.0316 µM; under setting [5], below 0.0316 µM. For the same compound, the viability, T/C by setting is: under setting [6], 83.1%; under setting [7], 73.2%; under setting [8], 73.5%; under setting [9], 81.8%; under setting [10], 105%; under setting [11], 100%. Moreover, the viability, T/C was 83.7% under setting [12]; 80.3% under setting [13]; 70% under setting [14]; 72.7% under setting [15]; 92.2% under setting [16]; 105% under setting [17]. Also, the viability, T/C is, setting by setting: under setting [18], 67.3%; under setting [19], 67%; under setting [20], 66.5%; under setting [21], 72%; under setting [22], 90%; under setting [23], 67.3%. Besides, the viability, T/C under setting [24] was 0.42%; the viability, T/C under setting [25] is 0.24%; the viability, T/C under setting [26] is 0.25%; the viability, T/C under setting [27] was 0.33%; the viability, T/C under setting [28] was 1.07%; the viability, T/C under setting [29] was 0.41%. Also, the viability, T/C was 0.23% under setting [30]; 0.26% under setting [31]; 0.26% under setting [32]; 0.17% under setting [33]; 0.22% under setting [34]; 0.27% under setting [35].

For `COC(=O)c1ccc2c(C(=Nc3ccc(N(C)C(=O)CN4CCN(C)CC4)cc3)c3ccccc3)c(O)[nH]c2c1` + CNCc1ccccc1-c1csc(C(C)Nc2nc(C)nc3cc(OC)c(OC)cc23)c1, the IC50 is 3.03 µM under setting [1]; 1.84 µM under setting [2]; 3.28 µM under setting [3]; below 0.0316 µM under setting [4]; below 0.0316 µM under setting [5]. In addition, the viability, T/C is 91% under setting [6]; 105% under setting [7]; 120% under setting [8]; 134% under setting [9]; 47.5% under setting [10]; 0.53% under setting [11]. For the same compound, the viability, T/C runs as follows: under setting [12], 83.7%; under setting [13], 93.3%; under setting [14], 107%; under setting [15], 120%; under setting [16], 5.04%; under setting [17], 0.18%. The viability, T/C runs as follows: under setting [18], 84.1%; under setting [19], 90.1%; under setting [20], 110%; under setting [21], 110%; under setting [22], 51.7%; under setting [23], 1.19%. Besides, the viability, T/C by setting is: under setting [24], 2.05%; under setting [25], 1.85%; under setting [26], 2.08%; under setting [27], 1.25%; under setting [28], 0.14%; under setting [29], 1.34%. Also, the viability, T/C was 0.42% under setting [30]; 1.27% under setting [31]; 0.48% under setting [32]; 0.14% under setting [33]; 2.49% under setting [34]; 0.86% under setting [35].

As for `Cn1ncnc1[C@H]1c2n[nH]c(=O)c3cc(F)cc(c23)N[C@@H]1c1ccc(F)cc1`, the viability, T/C (compound 0.000316 µM) is 91.8% [middle of 5 runs]; the viability, T/C (compound 0.001 µM) was 95.2% [middle of 5 runs]; the viability, T/C (compound 0.01 µM) was 104% [middle of 5 runs]; the viability, T/C (compound 0.1 µM) was 89.8% [middle of 5 runs]. Also, where the note is “curve of compound”, the IC50 was above 0.1 µM.

For the compound `O=C(c1cc(Cc2n[nH]c(=O)c3ccccc23)ccc1F)N1CCN(C(=O)C2CC2)CC1` + CNCc1ccccc1-c1csc(C(C)Nc2nc(C)nc3cc(OC)c(OC)cc23)c1, the IC50 is above 10 µM under setting [1]; above 10 µM under setting [2]; above 10 µM under setting [3]; below 0.0316 µM under setting [4]; below 0.0316 µM under setting [5]. Moreover, the viability, T/C was 72.8% under setting [6]; 79.4% under setting [7]; 75.4% under setting [8]; 71.6% under setting [9]; 66.7% under setting [10]; 71.9% under setting [11]. Besides, the viability, T/C is, setting by setting: under setting [12], 65.6%; under setting [13], 65.3%; under setting [14], 64.6%; under setting [15], 62%; under setting [16], 56.5%; under setting [17], 66.5%. For the same compound, the viability, T/C is, setting by setting: under setting [18], 61.3%; under setting [19], 68.7%; under setting [20], 62.8%; under setting [21], 55%; under setting [22], 64.3%; under setting [23], 62.9%. The viability, T/C reads like this: under setting [24], 1.32%; under setting [25], 3.56%; under setting [26], 0.56%; under setting [27], 0.32%; under setting [28], 3.02%; under setting [29], 0.56%. Moreover, the viability, T/C is, setting by setting: under setting [30], 0.13%; under setting [31], 0.47%; under setting [32], 1.37%; under setting [33], 0.65%; under setting [34], 0.77%; under setting [35], 0.19%.

Consider `C=CC(=O)N1CCN(c2nc(=O)n(-c3c(C)ccnc3C(C)C)c3nc(-c4c(O)cccc4F)c(F)cc23)C(C)C1` (configuration not stated), for which the viability, T/C reads like this: (compound 0.1 µM) 94.8% [middle of 16 runs]; (compound 0.316 µM) 97.2% [middle of 16 runs]. The IC50 by setting is: (compound alone, run of 08/19/2021) above 10 µM; (compound alone, run of 08/26/2021) above 10 µM; (compound alone, run of 09/02/2021) above 10 µM.

Take `COc1cc(Nc2ncc3c(n2)-c2ccc(Cl)cc2C(c2c(F)cccc2OC)=NC3)ccc1C(=O)O` + CC1OCC2(CCN(c3cnc(Sc4ccnc(N)c4Cl)c(N)n3)CC2)C1N: the IC50 under setting [1] was above 10 µM; the half-inhibitory concentration (IC50) under setting [2] is above 10 µM; the IC50 under setting [3] is above 10 µM; the IC50 under setting [4] was above 10 µM; the IC50 under setting [5] was above 10 µM. Further, the viability, T/C runs as follows: under setting [6], 101%; under setting [7], 101%; under setting [8], 99.8%; under setting [9], 82.2%; under setting [10], 99.8%; under setting [11], 95.8%. Moreover, the viability, T/C was 97.1% under setting [12]; 95.1% under setting [13]; 95.6% under setting [14]; 86.6% under setting [15]; 81.3% under setting [16]; 87.9% under setting [17]. Besides, the viability, T/C by setting is: under setting [18], 102%; under setting [19], 98.5%; under setting [20], 88.1%; under setting [21], 91.7%; under setting [22], 90.9%; under setting [23], 98%. The viability, T/C under setting [24] is 103%; the viability, T/C under setting [25] is 105%; the viability, T/C under setting [26] is 97.9%; the viability, T/C under setting [27] was 103%; the viability, T/C under setting [28] is 104%; the viability, T/C under setting [29] was 93.4%. Moreover, the viability, T/C was 113% under setting [30]; 101% under setting [31]; 103% under setting [32]; 96.5% under setting [33]; 103% under setting [34]; 91.5% under setting [35].

As for `CCN1CCN(Cc2ccc(Nc3ncc(F)c(-c4cc(F)c5nc(C)n(C(C)C)c5c4)n3)nc2)CC1`, the viability, T/C (compound 0.00316 µM) was 101% [middle of 5 runs]; the viability, T/C (compound 0.01 µM) is 86.9% [middle of 5 runs]; the viability, T/C (compound 0.0316 µM) is 85.5% [middle of 5 runs]; the viability, T/C (compound 0.1 µM) is 81.5% [middle of 5 runs]; the viability, T/C (compound 0.316 µM) was 88.2% [middle of 5 runs]; the viability, T/C (compound 1 µM) is 95.5% [middle of 5 runs]. For the same compound, the IC50 (curve of compound) was above 1 µM.
